Laboratory results published in patent US12599676B2, “Cytotoxic imidazo[1,2-A]pyridine compounds and their use in therapy” (MyricX Pharma Limited, priority 2022, dated 2026).
Each block holds one compound with its values, some of them ahead of it.

Columns and labels:
DOHH-2 tumor cells = assay: Subcutaneous xenograft DOHH-2 lymphoma model; assay type: in vivo, CB17/SCID mice; conditions: intraperitoneal dosing (Example 5: 7 or 20 mg/kg; Example 12: 0.7 or 2 mg/kg), QD cycles
Experimental: The in vivo efficacy of certain Example compounds was assessed in a subcutaneous xenograft DOHH-2 Lymphoma Model using 10 female 6-8 week old CB17/SCID Mice. Each mouse was inoculated subcutaneously at the right front region with DOHH-2 tumor cells (5×10^6) in 0.1 ml of PBS mixed with matrigel (1:1 PBS:matrigel) for tumor development. The test compound administration started once the mean tumor size reached approximately 100-150 mm^3.
Compounds were administered either IP (vehicle 10 mM sodium phosphate+0.2% Tween-80 (pH7.4) or orally (vehicle 15 Na2HPO4 buffer (10 mM) (pH 4.5)+0.2% tween 80). Tumor volumes were measured in two dimensions using a caliper, and the volume expressed in mm^3 using the formula: V=(L×W×W)/2, where V is tumor volume, L is tumor length (the longest tumor dimension) and W is tumor width (the longest tumor dimension perpendicular to L).
Mice were dosed with Example 21 orally (12.5 or 25 mg/kg) once a day for 9 consecutive days (FIG. 3). Example 5 was dosed intraperitoneally (7 or 20 mg/kg) in a cycle consisting of administration QD for three days followed by a three day no-dosing period followed by QD dosing for a further three days (FIG. 4). Example 12 was dosed intraperitoneally (0.7 or 2 mg/kg) in a cycle consisting of administration QD for three days followed by a three day no-dosing period followed by QD dosing for a further three days (FIG. 5). In a separate study Example 12 was dosed at […] in a cycle consisting of administration QD for two days followed by either four or six day no-dosing period, and this cycle was repeated three times (FIG. 6).

[1] = Body weight in BT474 xenograft study; assay type: in vivo, NOD/SCID mice; conditions: trastuzumab or ADC Example 1 2.5 or 5 mg/kg; Example 12 2 mg/kg (Group 6)
Experimental: During the study, body weights were measured three times weekly for all animals. Animals were given Diet Gel for the entire duration on the study.

[2] = system: HT1080 (human fibrosarcoma); assay: Cell cytotoxicity CellTiter-Glo, HT1080; assay type: cell-based; conditions: HT-1080
Experimental: (§1) Cells were seeded in 96-well microplates and treated with compounds or cisplatin (as a positive control) at 9 increasing concentrations in technical triplicate. […] On day 1, 90 μL of various cell suspensions with the number of cells ranging from 5000-8000 cells/well were seeded into wells of a 96-well plate (Corning). The number of cells to be seeded was previously determined. • 2. All 96-wells plates with cells were placed in an incubator overnight at 37° C. with 5% CO2. • 3. On day 2, cells were observed under a microscope ensuring the cells treated with vehicle control were in good condition. • 4. A dilution series of the test compounds and cisplatin were prepared at 10× the final concentrations required. 10 μL/well of 10× compound solution was added to the corresponding plates. The final volume was 100 μL/well for all the plates. Final DMSO concentration was 0.1%. • 5. On day 5 (after 72 hours of incubation), 50 μL of CTG reagent was added to each well. • 6. Contents were mixed for 5 minutes on an orbital shaker to facilitate cell lysis. • 7. The plate was allowed to incubate at room temperature for 10 minutes to stabilize luminescent signals. […]

[3] = system: MX-1 (human breast carcinoma); assay: Cell cytotoxicity CellTiter-Glo, MX-1; assay type: cell-based; conditions: MX1
Experimental: as §1

[4] = system: RKO (human colon carcinoma); assay: Cell cytotoxicity CellTiter-Glo, RKO; assay type: cell-based
Experimental: as §1

[5] = system: NCI-H1703 (human lung squamous cell carcinoma); assay: Cell cytotoxicity CellTiter-Glo, NCI-H1703; assay type: cell-based
Experimental: as §1

mouse hepatocytes = assay: Hepatocyte metabolic stability, mouse; assay type: in vitro ADME
Experimental: Biological Example 6: Rat hepatocyte half life Certain Example compounds and Comparator Compound 1 were tested for metabolic stability in a metabolic assay using mouse- and rat-derived hepatocytes. Compounds having good metabolic stability in the assay are expected to be especially useful as agents for preventing and/or treating cancer, by having a long half-life in human patients.
Frozen pooled rat and mouse hepatocytes obtained from LifeTechnologies were thawed and purified according to the manufacturer's instructions. The test compound (4 mM) in DMSO was diluted with acetonitrile to provide a 100 μM sub-stock then further diluted with pH 7.4 Krebs-Henseleit buffer (supplemented with CaCl2, NaHCO3, HEPES, fructose and glycine) to provide a 2 μM working solution. 25 μL of working solution was incubated at 37° C., treated with 25 μL of rat or mouse hepatocyte suspension (containing 1×10^6 cells/mL) and incubated at 37° C. with 5% CO2 level at 95% relative humidity. Wells were incubated for an appropriate time (0, 15, 30, 45, 60 and 75 min) then quenched with 250 μL of acetonitrile containing reference standards diltiazem, 7-ethoxycoumarin and propranolol). The plates were shaken, sonicated for 5 min then cooled to 4° C. until all sampling was complete. All plates were centrifuged at 4000 rpm for 20 min to pellet the debris. 110 μL supernatant was diluted 110 μL water and quantitated using LC-MS/MS.
A linear regression curve was fitted to a plot of natural logarithm (In) of AUC against time. The T-half (min)=0.693/slope

[6] = system: CA46 (human B cell lymphoma); assay: Cell cytotoxicity CellTiter-Glo, CA46; assay type: cell-based
Experimental: as §1

SMILES: CNCc1cnc2ccc(-c3ccc(F)c(F)c3OCCc3c(C(O)C(C)(C)C)nn(C)c3C)cn12 (single isomer, unassigned) [Example 12, 1-(4-(2-(2,3-difluoro-6-(3-((methylamino)methyl)imidazo[1,2-a]pyridin-6-yl)phenoxy)ethyl)-1,5-dimethyl-1H-pyrazol-3-yl)-2,2-dimethylpropan-1-ol]
- tumour volume compared to vehicle (DOHH-2 tumor cells): significant reduction in tumour volume or reduced growth in tumour volume
- body weights compared to vehicle control [1]: decreased significantly

- mHeps t^1/2 (mouse hepatocytes): 127.68 min
SMILES: Cc1c(CCOc2cc(Cl)ccc2-c2ccc3ncc(CCN)n3c2)c(C(=O)N(C)C)nn1C [Comparator Compound 1, 4-(2-{2-[3-(2-aminoethyl)imidazo[1,2-a]pyridin-6-yl]-5-chlorophenoxy}ethyl)-N,N,1,5-tetramethyl-1H-pyrazole-3-carboxamide, reference compound]
- IC50 [2]: 0.0064 µM
- IC50 [3]: 0.04 µM
- IC50 [4]: 0.096 µM
- IC50 [5]: 0.082 µM
- IC50 [6]: 0.613 µM
